We go through ten compounds from US5512595A, “Substituted phenoxyisobutyric acids and esters” (Adir et Compagnie, priority 1993, dated 1996).

For test [1], the system named is human LDL. The test is described as follows: Modification (peroxidation) of human LDL by copper sulphate, MDA production. Format: biochemical. The following applies: for IC50: inhibition of human LDL oxidation induced by copper sulphate (5.10^-6 M), 24 hours, MDA production, read-out: IC50 (M) Cu^2+ (converted); for activity compared with probucol or vitamin E in protecting human LDL: human LDL in vitro, modifications induced by copper sulphate and endothelial cells. On the procedure: (§1) The activity of the compounds was tested in comparison with probucol and vitamin E taken as reference products.
1.1.1 Modification of LDL by copper sulphate
Human LDL are incubated for 24 hours in the presence of copper sulphate (5.10^-6 M) and in the absence or in the presence of the test compounds (10^-9 M to 10^-4 M).
After incubation, the peroxidation of the LDL is evaluated by agar gel electrophoresis and by the formation of one of the products of lipid peroxidation: malonic dialdehyde (MDA) (Parthasarathy S., Young S. G., Witztum J. L., Pittman R. C., and Steinberg D.; J. Clin. Invest. 77; 641-644, 1986).
(§2) The activity of the test compounds is evaluated by calculating the concentrations that reduce by 50% (IC50) the production of MDA compared with the control experiments without those compounds.

Test [2] deals with human LDL. The test is described as follows: Modification (peroxidation) of human LDL by endothelial cells from the rabbit aorta, MDA production. The note with it: for IC50: inhibition of human LDL oxidation induced by endothelial cells (rabbit aorta), 24 hours, MDA production. Format: cell-based. Here is the method:
as §1
1.1.2 Modification of LDL by endothelial cells
Human LDL are incubated for 24 hours in the presence of endothelial cells from the rabbit aorta (RECL B4 line provided by Professor Steinberg, U.S.A), and in the absence or in the presence of the test compounds (10^-9 M to 10^-4 M).
After incubation, the peroxidation of the LDL is evaluated by agar gel electrophoresis and by the formation of one of the products of lipid peroxidation: malonic dialdehyde (MDA) (Steinbrecher U. P., Parthasarathy S., Leake D. S., Witztum J. L., and Steinberg D.; Proc. Nat. Acad. Sci. U.S.A 81, 3883-3887, 1984).
as §2

For the next test, the system named is LDL of Watanabe rabbits. Kind of test: Ex vivo study: peroxidation by copper sulphate of LDL from orally treated Watanabe rabbits, MDA production. The class given is in vivo. Here is the method:
as §1
2.1 Materials and methods
Watanabe rabbits (genetically hyperlipidaemic rabbits) weighing from 3 kg to 5 kg are used. […]
After treatment, the LDL of the animals are prepared by ultracentrifugation and subjected to oxidation with copper sulphate (5.10^-6 M). The lipid peroxidation of the LDL is evaluated after various periods of incubation with copper sulphate (from 2 to 24 hours) by measuring the formation of MDA.
Table B groups the MDA production values according to the period of incubation with copper sulphate of the LDL originating from control animals and from animals treated with the compound of Example 1 at different doses or with probucol.

Structures can show the parent of a compound that is named as a salt.

As a reminder, the IC50 is the concentration that inhibits the measured activity by half. Consider `Cc1c(C)c2c(c(C)c1O)CCC(C)(/C=C\Cc1ccc(OC(C)(C)C(=O)O)cc1)O2` (racemic) [Example 15, Tert-butylamine (Z)-(R,S)-2-{4-3-(6-hydroxy-2,5,7,8-tetramethylchroman-2-yl)prop-2-en-1-yl!phenoxy}isobutyrate], for which the IC50 in the test on human LDL [1] was 4e-08 M.

Consider `Cc1c(C)c2c(c(C)c1O)CCC(C)(CCCc1ccc(OC(C)(C)C(=O)O)cc1)O2` (racemic) [Example 18, Tert-butylamine (R,S)-2-{4-3-(6-hydroxy-2,5,7,8-tetramethylchroman-2-yl)propyl!phenoxy}isobutyrate], for which the IC50 with human LDL [1] is 6e-08 M.

Take `CC(C)(Oc1ccc(CCSc2cc(C(C)(C)C)c(O)c(C(C)(C)C)c2)cc1)C(=O)O` [Example 1, 2-{4-2-(3,5-di-tert-butyl-4-hydroxyphenylthio)ethyl!phenoxy}isobutyric acid]: the “times more effective than is probucol (test using endothelial cells)” value with human LDL [2] (endothelial cells, compared with probucol) turned out to be 1000 times. For the same compound, the values for the IC50 in the test on human LDL [2] and with human LDL [1] were 3 nM and 5e-08 M, respectively. The MDA production in the test on LDL of Watanabe rabbits (50 mg/kg/day orally, 3 days, 2 hours incubation of LDL with copper sulphate) is on record as 0.66 nmol/mg proteins; in the test on LDL of Watanabe rabbits (50 mg/kg/day orally, 3 days, 4 hours incubation of LDL with copper sulphate) it was 0.35 nmol/mg proteins; in the test on LDL of Watanabe rabbits (50 mg/kg/day orally, 3 days, 6 hours incubation of LDL with copper sulphate), 0.31 nmol/mg proteins; with LDL of Watanabe rabbits (50 mg/kg/day orally, 3 days, 8 hours incubation of LDL with copper sulphate), 0.26 nmol/mg proteins; in the test with LDL of Watanabe rabbits (50 mg/kg/day orally, 3 days, 24 hours incubation of LDL with copper sulphate) it was 0.86 nmol/mg proteins. For the same compound, the “inhibition of LDL peroxidation induced by copper sulphate” value with LDL of Watanabe rabbits (from a dose of 50 mg/kg/day) is “completely inhibits”. Besides, the “activity compared with probucol or vitamin E in protecting human LDL” value in the test on human LDL [1] is recorded as “greater activity”.

On to `Cc1cc(SCCc2ccc(OC(C)(C)C(=O)O)cc2)c(C)c(C)c1O` [Example 3, 2-{4-2-(4-hydroxy-2,3,5-trimethylphenylthio)ethyl!phenoxy}isobutyric acid], for which, in the test on human LDL [1], the “activity compared with probucol or vitamin E in protecting human LDL” value is “greater activity” and the half-maximal inhibitory concentration (IC50) is 9e-08 M.

With `CC(C)(Oc1ccc(CSc2cc(C(C)(C)C)c(O)c(C(C)(C)C)c2)cc1)C(=O)O` [Example 4, 2-4-(3,5-di-tert-butyl-4-hydroxyphenylthiomethyl)phenoxy!isobutyric acid], in the test with human LDL [1], the “activity compared with probucol or vitamin E in protecting human LDL” value is listed as “greater activity” and the IC50 was 3e-08 M.

`CC(C)(Oc1ccc(CCCSc2cc(C(C)(C)C)c(O)c(C(C)(C)C)c2)cc1)C(=O)O` [Example 5, tert-butylamine salt of 2-{4-3-(3,5-di-tert-butyl-4-hydroxyphenylthio)propyl!phenoxy}isobutyric acid]: in the test on human LDL [1], the “activity compared with probucol or vitamin E in protecting human LDL” value is recorded as “greater activity” and the IC50 was 4e-08 M.

For `Cc1cc(OCCc2ccc(OC(C)(C)C(=O)O)cc2)c(C)c(C)c1O` [Example 9, 2-{4-2-(4-hydroxy-2,3,5-trimethylphenoxy)ethyl!phenoxy}isobutyric acid], the IC50 in the test with human LDL [1] was 5e-07 M.

Turning to `CC(C)(Oc1ccc(CCOc2cc(C(C)(C)C)c(O)c(C(C)(C)C)c2)cc1)C(=O)O` [Example 10, 2-{4-2-(3,5-di-tert-butyl-4-hydroxyphenoxy)ethyl!phenoxy}isobutyric acid], the IC50 was 7 nM with human LDL [2] and 2e-08 M in the test with human LDL [1].

Take `CC(C)(Sc1cc(C(C)(C)C)c(O)c(C(C)(C)C)c1)Sc1cc(C(C)(C)C)c(O)c(C(C)(C)C)c1` [PROBUCOL, probucol, reference compound]: the concentration for half-maximal inhibition (IC50) in the test with human LDL [2] is 4000 nM; in the test on human LDL [1], 3e-06 M. Moreover, the “retardation of LDL peroxidation compared with control animals” value in the test on LDL of Watanabe rabbits (250 mg/kg/day) is on record as “approximately 2 hours”. Besides, the MDA production in the test with LDL of Watanabe rabbits (250 mg/kg/day orally, 2 hours incubation of LDL with copper sulphate) is 1.85 nmol/mg proteins; in the test on LDL of Watanabe rabbits (250 mg/kg/day orally, 4 hours incubation of LDL with copper sulphate) it was 3.50 nmol/mg proteins; in the test with LDL of Watanabe rabbits (250 mg/kg/day orally, 6 hours incubation of LDL with copper sulphate) it was 4.90 nmol/mg proteins; in the test with LDL of Watanabe rabbits (250 mg/kg/day orally, 8 hours incubation of LDL with copper sulphate), 12.26 nmol/mg proteins; with LDL of Watanabe rabbits (250 mg/kg/day orally, 24 hours incubation of LDL with copper sulphate), 23.81 nmol/mg proteins.

As to vitamin E [reference compound], the results for the IC50 in the test on human LDL [2] and in the test on human LDL [1] were 4000 nM and over 0.0001 M, respectively.
